Results from PMC11564096, “Structural and mechanistic insights into Streptococcus pneumoniae NADPH oxidase” (Nature Structural & Molecular Biology, 2024).

Experiments:
[1] = biological target: T1, SpNOX (Streptococcus pneumoniae NOX) (Streptococcus pneumoniae, UniProt Q8CZ28); type: binding; details: substrate-free, 1 mM FAD added; DH domain FAD site
T1 construct: gene spr0531; residues 2-400, N-terminal 6xHis-PreScission tag cleaved, E. coli C41(DE3), LMNG micelles, monomer, 46 kDa, two b-type hemes and FAD
T1 sequence (Q8CZ28 2-400): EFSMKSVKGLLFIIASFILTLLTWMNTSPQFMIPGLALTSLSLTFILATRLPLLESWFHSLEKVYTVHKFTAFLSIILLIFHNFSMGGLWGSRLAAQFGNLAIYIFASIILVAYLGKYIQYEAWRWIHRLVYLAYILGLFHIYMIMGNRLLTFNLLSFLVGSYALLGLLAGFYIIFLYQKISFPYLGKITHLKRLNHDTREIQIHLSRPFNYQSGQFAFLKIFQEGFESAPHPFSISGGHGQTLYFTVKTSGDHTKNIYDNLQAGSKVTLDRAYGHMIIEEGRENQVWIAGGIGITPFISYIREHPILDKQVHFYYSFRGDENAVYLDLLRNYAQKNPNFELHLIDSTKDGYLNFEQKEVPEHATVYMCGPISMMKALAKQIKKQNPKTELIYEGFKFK

[2] = biological target: T1, SpNOX (Streptococcus pneumoniae NOX); assay: cytochrome c reduction assay, absorbance at […] nm; type: biochemical; details: 100 µM bovine cytochrome c, 0.1 µM SpNOX, 1 µM FAD, 50 mM Tris pH 7.0, 250 mM NaCl, room temperature, aerobic; read-out: apparent KM

How did the “cryo-EM structure, 2.29 Å” value [1] turn out when `Cc1cc2nc3c(=O)[nH]c(=O)nc-3n(C[C@H](O)[C@H](O)[C@H](O)COP(=O)(O)OP(=O)(O)OC[C@H]3O[C@@H](n4cnc5c(N)ncnc54)[C@H](O)[C@@H]3O)c2cc1C` [FAD] was run?
The value was “A clear density for FAD was well resolved in all maps”.

How did the Km [2] turn out when `NC(=O)C1=CN([C@@H]2O[C@H](COP(=O)(O)OP(=O)(O)OC[C@H]3O[C@@H](n4cnc5c(N)ncnc54)[C@H](OP(=O)(O)O)[C@@H]3O)[C@@H](O)[C@H]2O)C=CC1` [NADPH] was run?
Its Km is 7.59 µM.
